Here are results for nine molecules from publication PMC8910649, “An Efficient Way to Screen Inhibitors of Energy-Coupling Factor (ECF) Transporters in a Bacterial Uptake Assay” (International Journal of Molecular Sciences, 2022).

Structures are written as SMILES. ≈ marks a conversion by molar mass, not a printed value. Where two headings read alike, the source gives them in different places. Bounds are passed on as bounds.

In data set [1] the test system is ECF FolT transporter. In words: Bacterial (whole-cell) folate uptake assay in L. casei. As to conditions: for Inhibition at 200 μM: folate import.
Description: The OD600 was measured in a Nanodrop 2000c spectrophotometer (Thermo Fisher Scientific, Waltham, MA, USA) using half-micro cuvettes. The culture was diluted to OD600 = 0.06 in 25 mL and grown under the same conditions as before for 16 h. The new overnight culture was diluted to OD600 = 0.4 in 25 mL MRS medium and regrown in a 50 mL reaction tube for 2 h under the same conditions. The culture was subsequently centrifuged, washed with 50 mL PBS (50 mM, pH 7.4), centrifuged again, and resuspended in citrate buffer (20 mM, pH 6, 2% D-Glucose, 8 g/L NaCl, 0.2 g/L KCl) while adjusting the OD600 to 0.5. Then, 185 μL of this cell suspension was subsequently distributed on an opaque MultiScreen HTS Filter Plate-GV (Merck KGaA, Darmstadt, Germany). For each plate, two wells containing buffer for blank determination were included. A stock solution of compounds in DMSO (10 μL) was added to the wells and mixed (final DMSO conc. = 5%), followed by a preincubation at RT for 10 min. The solubility of the compounds in citrate buffer was verified in 96-well plates. Poorly soluble compounds were tested at the highest possible concentration. In addition, for each plate, four negative controls containing DMSO instead of inhibitor and a positive control were included. Tritium-labeled folic acid (Moravek Biochemicals, Brea, CA, USA) (5 μL, 2 μM, radioactivity was adjusted to 12.7 Ci/mmol using unlabeled folic acid) was added to the wells leading to a final concentration of 50 nM. The solutions were mixed (final volume 200 μL) as before, and the plate was incubated in a preheated incubator at 30 °C for 30 min. The plate was covered with sealing tape during the incubation steps to avoid evaporation. To stop the reaction, the liquid in the filter plates was removed from the cells by centrifugation (3 min at 1500× g). Subsequently, the cells were washed twice with PBS (10 mM, pH 7.2), followed by centrifugation steps (3 and 5 min at 1500× g). After removal of the underdrain, residual liquid on the bottom of the filters was removed using lint-free paper towels and the plate was dried at 50 °C in the incubator. After 10 min, 30 μL of liquid scintillating fluid was added into each well, the plate was covered with sealing tape and gently vortexed for 5 min. Relative radioactivity was determined for 1 min each well in a Wallac MicroBeta TriLux BetaCounter (Perkin Elmer, Waltham, MA, USA). […] Counts were averaged and after subtraction of the blank, the percentage of inhibition was determined by the following formula: Inh. %=100-x inhibitor/x negative control×100 The data were plotted including standard deviations. IC50 values were determined by plotting percentages of inhibition against the related concentrations and fitting the Origin standard function “Hill1” to the data. The KM was determined by plotting the relative radioactivity against the folic acid concentration and fitting the Origin standard function “Hyperbl” to the data.
In data set [2] the test system is ECF FolT2 transporter. The conditions noted are these: cited from earlier work.
The nature of data set [3]: Solubility of the compounds in citrate buffer (assay conditions). In kind it is physicochemical. On the procedure: The data were analyzed by using OriginPro 2018G (OriginLab Corporation, Northampton, MA, USA).
In data set [4] the test system is Staphylococcus aureus str. Newman. Kind of data set: Antibacterial testing (MIC). The conditions noted are these: not auxotrophic. It counts as cell-based. Here is the method: (§1) Figure S12. Screening a broad library (4−22) against ECF FolT2 transporter in the L. casei bacterial assay. Compou nds colored i n blue s howed inhibiti on bi gger than 20% when tested at 500 µ M.
(§2) Compounds were prepared as DMSO stocks a nd minimum inhibitory concentrations (MIC) were determined as de-scribed elsewhere. Bacteria were handled according to standard procedures and w ere obtained from the Ger man Col-lection of M icroorganisms and Cell Cultures (DSMZ) or were part of our interna l strain collection. In brief, bacterial cultures were diluted in Tryptic Soy Broth (TSB; 1.7% pepto ne casein, 0.3% peptone soymeal, 0.25% glucose, 0.5% NaCl, 0.25% K2HPO4; pH 7.3) or Müller– Hinton br oth (0.2% beef infusion solids, 1.75% casein hydr olysate, 0.15% starch, pH 7.4) to achieve a final inoculum of approximately 10 4 to 105 cfu/mL. Compou nd s were tested in serial dilution (0.06– […]
(§3) Organisms FolT EcfT EcfA1 EcfA2 Figure S13:
(§4) Lactobacillus delbrueckii A0A061BSU4 Q1GBJ0 Q1GBI9 numbers of the […]
(§5) Lactobacillus casei transporter (FolT,

The subject of data set [5] is Streptococcus pneumoniae DSM-11865 (PRSP). In words: Antibacterial testing (MIC). It counts as cell-based. The conditions noted are these: auxotrophic. Here is the method:
as §1, §2, §3, §4, §5

Data set [6] deals with Streptococcus pneumoniae DSM-20566. In words: Antibacterial testing (MIC). It counts as cell-based. The conditions noted are these: DSM20566; Streptococcus pneumoniae DSM-20566, auxotrophic. Here is the method: as §1, §2, §3, §4, §5

On to `O=C(O)c1cccc(NCc2ccc(-c3cccc(Cl)c3)o2)c1` [Compound 25], for which, in data set [1] (L. casei based uptake assay), the “Inhibition at 200 μM” value came out at 41%.

Regarding `Nc1nc(=O)c2nc(CNc3ccc(C(=O)N[C@@H](CCC(=O)O)C(=O)O)cc3)cnc2[nH]1` [folic acid], in data set [1] (read-out: KM of folate uptake, substrate-dependent folate uptake in L. casei, PBS (50 mM, pH 7.4, 2% Glucose)), the Km was determined as 0.049 µM. For the same molecule, the “Vmax of folate uptake” value in data set [1] (substrate-dependent folate uptake in L. casei, PBS (50 mM, pH 7.4, 2% Glucose)) is reported as 83 (±2) counts per minute (cpm).

Consider `O=C(O)c1cc(OCc2cccc3ccccc23)ccc1O` [Compound 1, reference compound], for which the IC50 in data set [2] (uptake into proteoliposomes, ECF FolT2 from L. delbrueckii) was 282 ± 108 µM.

As for `O=C(O)c1ccccc1NCc1ccc(-c2ccc(Cl)cc2)o1` [Compound 23], in data set [3], the “solubility under the conditions of the assay” value is “insoluble”. Also, the solubility in data set [3] (citrate buffer with 5% DMSO, 96-well plates, pH 6, aqueous with cosolvent or surfactant or cyclodextrin, kinetic from dmso stock, citrate buffer, read-out: solubility limit (not soluble above)) was at most 50 µM. In data set [1] (50 µM (not soluble above 50 μM), L. casei based uptake assay), the “Inhibition at 50 µM” value worked out at 11% at 50 µM.

Turning to `O=C(O)c1ccc(NCc2ccc(-c3ccc(Cl)cc3)o2)cc1` [Compound 24], the “Inhibition at 500 μM” value in data set [1] (500 μM, L. casei based uptake assay) was “n.i at 500 μM (n.i. = no inhibition (if inhibition < 10%))”. Further, the “inhibition” value in data set [1] (up to 500 μM, L. casei uptake assay) is “no inhibition”.

For the molecule `O=C(O)c1cccc(NCc2cc(-c3ccc(Cl)cc3)co2)c1` [Compound 27], the “Inhibition at 200 μM” value in data set [1] (L. casei based uptake assay) is recorded as 8%.

In the case of `O=C(O)c1cccc(NCc2ccc(-c3ccccc3Cl)o2)c1` [Compound 26], the “Inhibition at 200 μM” value in data set [1] (L. casei based uptake assay) worked out at 36%.

`O=C(O)CNCc1ccc(-c2ccc(Cl)cc2)o1` [Compound 2]: the half-inhibitory concentration (IC50) in data set [2] (proteoliposome uptake (in vitro assay, L. delbrueckii)) is above 1200 µM. Moreover, the “inhibition of folic acid uptake: inactive up to” value in data set [1] (bacterial uptake assay L. casei) was above 1.2 mM.

Turning to `O=C(O)c1cccc(NCc2ccc(-c3ccc(Cl)cc3)o2)c1` [Compound 3], the minimal inhibitory concentration (MIC) stood at 23 µg/mL (≈ 70.2 µM) in data set [4], 10 µg/mL (≈ 30.5 µM) in data set [5] and 21 µg/mL (≈ 64.1 µM) in data set [6]. Also, in data set [1] (L. casei based uptake assay), the “Inhibition at 200 μM” value is listed as 43% (IC50 = 204 ± 22 μM). The molecule further displayed an IC50 in data set [1] (bacterial uptake assay, L. casei, 50 nM radiolabeled folic acid) of 204 ± 22 µM.
